These results are taken from US12150930B2 (BDR Pharmaceuticals Int'l Pvt. Ltd., priority 2022, dated 2024).

In data set [1] the test system is CACO2 monolayers. The following applies: across CACO2 monolayers; cited from earlier work.
Data set [2] is described as follows: API solubility study in solubilizers/solvents/co-solvents (formulation trials). The class given is physicochemical. The following applies: ethanol added after addition of API. The source says:
During the selection of excipients for formulation of Enzalutamide oral solution, first it is required to select the excipients which are not covered by patent of Enzalutamide capsules and also excipients need to meet IIG limits and useful for product development.
In the present invention selection of Solubilizers based on different trials which are like Labrafac Lipophile WL-1349, Labrafil M1944 Cs, Maisine CC, Kolliphor RH 40, Tween 80, Castor Oil, Migloyl 812 etc.
Further, here in the present invention selection of Co-solvents also based on trials and experiments which are Propylene glycol, Polyethylene glycol 400, Poly ethylene glycol 200, Ethanol, Glycerine, Maisine CC etc.
Based on the API solubility study combination of Kolliphor RH 40 with Ethanol and Polyethylene 400 was taken for further study. […]
Process for the Preparation: • 1. Dispensed quantity of Polyoxyl 40 hydrogenated castor oil was taken and started heating with maintained temperature of 45° C. of product. Further, Dispensed quantity of glyceryl monolinoleate was added to material of above step under stirring mixing/homogenization process. • 2. […] Further, then dispensed quantity of Ethanol was added to above step of material and continued process of stirring/homogenization then added dispensed quantity of propylene glycol and continued the process till Enzalutamide was dissolved. […]

For data set [3] the following is noted: cited from earlier work.
A short description of data set [4]: Stability of enzalutamide standard solution. The class given is physicochemical. Particulars: 25° C., in ACN diluted with dissolution medium. The method, then:
In that, 25 ml of ACN was dissolved and diluted with ACN to volume. From this solution, 2 ml of solution was transferred to a 100 ml volumetric flask and diluted with dissolution medium to volume. The standard solution was found stable at 25° C. for 27 h. Sample solution was prepared by adding a 5 ml sample of the present invention in 900 ml of dissolution medium. Further, 2.0 ml of this solution was diluted with 100 ml of dissolution medium.

`CNC(=O)c1ccc(N2C(=S)N(c3ccc(C#N)c(C(F)(F)F)c3)C(=O)C2(C)C)cc1F` [Enzalutamide]: in data set [1], the “mean apparent permeability coefficient” value is 3.1e-05 cm/s. Moreover, the “API solubilized during procedure” value in data set [2] is listed as “approx. 80%”. Besides, the “Biopharmaceutics Classification System (BCS) class” value in data set [3] (low solubility and high permeability) is reported as “Class 2”. Moreover, the “effect of pH on enzalutamide solubility” value in data set [3] (physiological pH range) is listed as “not affected by pH”. For the same compound, the “time for which the standard solution was found stable” value in data set [4] was determined as 27 h.
